Results reported in the kinase profiling compilation of Christmann-Franck et al. (2016).

Columns and labels:
Assay in all cases: radiometric filter-binding kinase assay, Kinase HotSpot
Conditions in all cases: compound 0.5 µM; ATP 10 µM
[1] = target: ACVR1 (human) (UniProt Q04771)
[2] = target: AURKA (human) (UniProt O14965)
[3] = target: BLK (human) (UniProt P51451)
[4] = target: BMX (human) (UniProt P51813)
[5] = target: BRSK2 (human) (UniProt Q8IWQ3)
[6] = target: CAMK2G (human) (UniProt Q13555)
[7] = target: CAMK4 (human) (UniProt Q16566)
[8] = target: CDK1 CCNB1 (human) (UniProt P06493+P14635)
Chain of CDK1 CCNB1 (human) (P06493 whole entry, looked up): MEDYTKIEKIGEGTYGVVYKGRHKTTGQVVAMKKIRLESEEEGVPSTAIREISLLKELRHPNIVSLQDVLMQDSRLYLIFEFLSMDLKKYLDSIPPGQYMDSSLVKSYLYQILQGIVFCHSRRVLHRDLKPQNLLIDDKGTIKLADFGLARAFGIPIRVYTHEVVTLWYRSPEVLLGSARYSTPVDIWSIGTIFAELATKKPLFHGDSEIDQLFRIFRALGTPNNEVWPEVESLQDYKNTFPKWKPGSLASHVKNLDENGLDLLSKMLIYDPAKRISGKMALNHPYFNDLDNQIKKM
Chain of CDK1 CCNB1 (human) (P14635 whole entry, looked up): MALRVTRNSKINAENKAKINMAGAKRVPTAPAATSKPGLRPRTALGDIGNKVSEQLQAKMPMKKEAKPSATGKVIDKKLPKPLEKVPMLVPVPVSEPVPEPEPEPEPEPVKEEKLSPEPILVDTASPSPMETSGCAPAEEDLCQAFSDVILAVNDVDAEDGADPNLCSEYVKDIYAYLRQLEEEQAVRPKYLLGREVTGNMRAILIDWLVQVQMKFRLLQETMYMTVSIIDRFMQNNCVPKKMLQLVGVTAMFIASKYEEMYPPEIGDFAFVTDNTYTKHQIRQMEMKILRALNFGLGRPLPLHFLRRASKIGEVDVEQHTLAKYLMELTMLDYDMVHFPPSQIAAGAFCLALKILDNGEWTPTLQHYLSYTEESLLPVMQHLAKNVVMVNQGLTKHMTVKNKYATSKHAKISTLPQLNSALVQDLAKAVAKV

[9] = target: CHEK2 (human) (UniProt O96017)
Chain of CHEK2 (human) (O96017 whole entry, looked up): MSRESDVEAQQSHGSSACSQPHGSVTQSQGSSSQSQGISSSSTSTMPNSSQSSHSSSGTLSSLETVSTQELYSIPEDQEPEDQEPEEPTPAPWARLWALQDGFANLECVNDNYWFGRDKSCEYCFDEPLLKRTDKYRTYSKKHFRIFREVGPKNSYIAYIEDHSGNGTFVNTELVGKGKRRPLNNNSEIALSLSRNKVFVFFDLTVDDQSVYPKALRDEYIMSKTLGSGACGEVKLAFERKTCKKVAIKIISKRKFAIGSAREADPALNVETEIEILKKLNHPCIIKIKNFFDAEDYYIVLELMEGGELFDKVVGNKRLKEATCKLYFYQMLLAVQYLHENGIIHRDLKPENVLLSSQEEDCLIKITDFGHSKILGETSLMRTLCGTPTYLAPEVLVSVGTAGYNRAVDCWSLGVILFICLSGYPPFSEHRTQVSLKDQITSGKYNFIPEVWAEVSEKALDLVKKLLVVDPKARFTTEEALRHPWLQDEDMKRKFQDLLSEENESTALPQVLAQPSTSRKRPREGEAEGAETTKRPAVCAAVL

[10] = target: CLK4 (human) (UniProt Q9HAZ1)
Chain of CLK4 (human) (Q9HAZ1 whole entry, looked up): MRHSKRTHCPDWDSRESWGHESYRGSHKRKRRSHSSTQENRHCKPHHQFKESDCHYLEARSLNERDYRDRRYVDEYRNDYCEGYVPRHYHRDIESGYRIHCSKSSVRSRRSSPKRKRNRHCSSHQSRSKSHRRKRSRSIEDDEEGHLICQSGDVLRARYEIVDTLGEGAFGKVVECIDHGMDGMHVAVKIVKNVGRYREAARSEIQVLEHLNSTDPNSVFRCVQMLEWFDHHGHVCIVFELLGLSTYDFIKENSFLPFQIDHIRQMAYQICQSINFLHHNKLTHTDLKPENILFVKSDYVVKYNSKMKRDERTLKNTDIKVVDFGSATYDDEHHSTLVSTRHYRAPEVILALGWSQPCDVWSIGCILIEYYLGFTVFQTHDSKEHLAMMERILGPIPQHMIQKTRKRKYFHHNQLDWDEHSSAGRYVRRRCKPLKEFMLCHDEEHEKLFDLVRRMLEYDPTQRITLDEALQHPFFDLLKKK

[11] = target: DAPK3 (human) (UniProt O43293)
[12] = target: DSTYK (human) (UniProt Q6XUX3)
[13] = target: DYRK4 (human) (UniProt Q9NR20)
[14] = target: EPHA2 (human) (UniProt P29317)
Chain of EPHA2 (human) (P29317 whole entry, looked up): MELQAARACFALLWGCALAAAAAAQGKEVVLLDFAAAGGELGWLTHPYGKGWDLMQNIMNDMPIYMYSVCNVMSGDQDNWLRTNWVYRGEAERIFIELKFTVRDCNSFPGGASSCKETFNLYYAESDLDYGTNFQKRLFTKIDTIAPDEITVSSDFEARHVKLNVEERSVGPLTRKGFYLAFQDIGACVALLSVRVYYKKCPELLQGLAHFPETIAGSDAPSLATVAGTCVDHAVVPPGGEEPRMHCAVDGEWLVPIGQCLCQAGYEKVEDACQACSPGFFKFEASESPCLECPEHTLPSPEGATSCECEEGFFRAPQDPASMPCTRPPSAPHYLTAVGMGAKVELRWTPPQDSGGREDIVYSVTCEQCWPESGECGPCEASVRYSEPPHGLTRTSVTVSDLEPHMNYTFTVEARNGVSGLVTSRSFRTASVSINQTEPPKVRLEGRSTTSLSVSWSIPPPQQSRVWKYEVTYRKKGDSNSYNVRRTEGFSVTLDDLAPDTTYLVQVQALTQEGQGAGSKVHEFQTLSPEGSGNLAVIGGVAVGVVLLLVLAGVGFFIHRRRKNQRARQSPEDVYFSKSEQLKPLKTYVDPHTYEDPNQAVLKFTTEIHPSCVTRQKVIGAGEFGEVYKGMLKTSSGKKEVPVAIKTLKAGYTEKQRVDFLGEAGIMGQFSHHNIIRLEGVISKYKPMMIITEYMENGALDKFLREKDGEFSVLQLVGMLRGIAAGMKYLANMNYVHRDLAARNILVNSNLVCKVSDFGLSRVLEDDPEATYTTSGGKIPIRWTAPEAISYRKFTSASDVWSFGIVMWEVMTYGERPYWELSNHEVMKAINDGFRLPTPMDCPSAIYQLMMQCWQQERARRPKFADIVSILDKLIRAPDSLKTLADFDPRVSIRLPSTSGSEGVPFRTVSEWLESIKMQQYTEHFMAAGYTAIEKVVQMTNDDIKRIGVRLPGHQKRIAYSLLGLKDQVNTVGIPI

[15] = target: EPHA3 (human) (UniProt P29320)
[16] = target: EPHB1 (human) (UniProt P54762)
[17] = target: FGFR2 (human) (UniProt P21802)
[18] = target: FLT1 (human) (UniProt P17948)
[19] = target: FLT3 (human) (UniProt P36888)
[20] = target: JAK3 JH1 JH2 (human) (UniProt P52333)
Chain of JAK3 JH1 JH2 (human) (P52333 whole entry, looked up): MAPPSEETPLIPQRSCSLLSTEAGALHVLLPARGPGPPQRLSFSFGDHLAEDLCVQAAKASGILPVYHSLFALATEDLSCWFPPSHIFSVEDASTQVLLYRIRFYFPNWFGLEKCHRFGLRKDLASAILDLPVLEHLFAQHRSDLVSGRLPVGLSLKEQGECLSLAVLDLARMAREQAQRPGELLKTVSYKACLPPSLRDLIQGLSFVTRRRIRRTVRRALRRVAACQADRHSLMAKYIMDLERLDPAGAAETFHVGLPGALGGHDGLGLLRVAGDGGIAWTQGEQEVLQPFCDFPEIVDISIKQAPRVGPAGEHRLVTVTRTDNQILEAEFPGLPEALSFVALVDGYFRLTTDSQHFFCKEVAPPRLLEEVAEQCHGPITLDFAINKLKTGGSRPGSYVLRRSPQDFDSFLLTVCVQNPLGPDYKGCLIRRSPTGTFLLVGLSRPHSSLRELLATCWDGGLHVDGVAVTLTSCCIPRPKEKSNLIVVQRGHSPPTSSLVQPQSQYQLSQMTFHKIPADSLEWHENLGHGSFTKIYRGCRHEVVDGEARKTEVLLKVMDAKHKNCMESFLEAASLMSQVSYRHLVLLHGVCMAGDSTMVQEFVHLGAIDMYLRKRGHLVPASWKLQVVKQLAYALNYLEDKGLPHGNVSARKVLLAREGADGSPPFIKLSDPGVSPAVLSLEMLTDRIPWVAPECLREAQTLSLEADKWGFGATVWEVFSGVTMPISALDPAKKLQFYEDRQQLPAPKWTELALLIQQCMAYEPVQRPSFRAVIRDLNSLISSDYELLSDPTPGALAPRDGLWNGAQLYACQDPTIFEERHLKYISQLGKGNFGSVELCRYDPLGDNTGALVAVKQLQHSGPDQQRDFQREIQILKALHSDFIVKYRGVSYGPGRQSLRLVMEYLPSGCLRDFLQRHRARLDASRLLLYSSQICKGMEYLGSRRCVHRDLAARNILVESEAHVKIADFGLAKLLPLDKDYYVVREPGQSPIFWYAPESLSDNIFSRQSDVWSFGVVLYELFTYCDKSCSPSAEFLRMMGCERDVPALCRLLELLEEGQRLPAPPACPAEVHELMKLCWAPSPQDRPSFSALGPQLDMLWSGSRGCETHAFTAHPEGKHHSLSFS

[21] = target: MAP2K2 (human) (UniProt P36507)
Chain of MAP2K2 (human) (P36507 whole entry, looked up): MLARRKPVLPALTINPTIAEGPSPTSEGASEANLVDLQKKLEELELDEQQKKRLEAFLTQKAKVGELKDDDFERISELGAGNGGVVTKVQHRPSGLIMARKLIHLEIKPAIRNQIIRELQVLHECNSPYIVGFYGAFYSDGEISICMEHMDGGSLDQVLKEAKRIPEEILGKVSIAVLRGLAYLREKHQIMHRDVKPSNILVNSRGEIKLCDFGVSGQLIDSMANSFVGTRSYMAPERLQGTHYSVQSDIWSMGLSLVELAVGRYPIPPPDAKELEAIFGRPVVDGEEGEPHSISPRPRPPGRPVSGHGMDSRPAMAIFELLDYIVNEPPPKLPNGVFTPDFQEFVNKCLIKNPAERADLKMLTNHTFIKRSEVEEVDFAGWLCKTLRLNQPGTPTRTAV

[22] = target: MAP4K5 (human) (UniProt Q9Y4K4)
[23] = target: MAPK9 (human) (UniProt P45984)
[24] = target: MARK3 (human) (UniProt P27448)
[25] = target: MATK (human) (UniProt P42679)
[26] = target: MERTK (human) (UniProt Q12866)
[27] = target: NLK (human) (UniProt Q9UBE8)
[28] = target: NTRK2 (human) (UniProt Q16620)
[29] = target: PAK2 (human) (UniProt Q13177)
[30] = target: PLK2 (human) (UniProt Q9NYY3)
[31] = target: PRKCD (human) (UniProt Q05655)
[32] = target: PRKCG (human) (UniProt P05129)
[33] = target: PRKG2 (human) (UniProt Q13237)
[34] = target: ROCK2 (human) (UniProt O75116)
[35] = target: STK33 (human) (UniProt Q9BYT3)
[36] = target: TEC (human) (UniProt P42680)
Chain of TEC (human) (P42680 whole entry, looked up): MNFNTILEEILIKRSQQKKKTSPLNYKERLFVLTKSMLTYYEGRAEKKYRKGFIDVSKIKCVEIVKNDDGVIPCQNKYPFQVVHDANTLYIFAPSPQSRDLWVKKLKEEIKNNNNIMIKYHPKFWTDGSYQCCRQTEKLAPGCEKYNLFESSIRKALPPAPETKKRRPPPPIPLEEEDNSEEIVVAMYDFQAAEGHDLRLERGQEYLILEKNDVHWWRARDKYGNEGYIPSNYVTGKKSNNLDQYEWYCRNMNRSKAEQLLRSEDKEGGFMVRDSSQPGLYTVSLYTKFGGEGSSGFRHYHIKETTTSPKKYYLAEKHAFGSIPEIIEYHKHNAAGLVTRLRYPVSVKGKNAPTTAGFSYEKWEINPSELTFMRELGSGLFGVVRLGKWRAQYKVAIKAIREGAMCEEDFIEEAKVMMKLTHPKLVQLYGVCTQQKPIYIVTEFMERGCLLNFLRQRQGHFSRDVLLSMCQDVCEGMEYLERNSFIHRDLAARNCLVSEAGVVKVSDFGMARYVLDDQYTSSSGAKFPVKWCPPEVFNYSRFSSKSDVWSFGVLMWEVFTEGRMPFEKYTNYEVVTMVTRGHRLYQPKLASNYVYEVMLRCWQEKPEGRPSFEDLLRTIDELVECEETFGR

[37] = target: ULK1 (human) (UniProt O75385)
[38] = target: ULK2 (human) (UniProt Q8IYT8)
[39] = target: DAPK2 (human) (UniProt Q9UIK4)
[40] = target: GRK5 (human) (UniProt P34947)
[41] = target: PAK3 (human) (UniProt O75914)

| SMILES | residual activity [1] [%] | residual activity [3] [%] | residual activity [4] [%] | residual activity [5] [%] | residual activity [6] [%] | residual activity [7] [%] | residual activity [8] [%] | residual activity [9] [%] | residual activity [10] [%] | residual activity [11] [%] | residual activity [12] [%] | residual activity [13] [%] | residual activity [14] [%] | residual activity [15] [%] | residual activity [16] [%] | residual activity [17] [%] | residual activity [18] [%] | residual activity [19] [%] | residual activity [20] [%] | residual activity [21] [%] | further results |
| --- | --- | --- | --- | --- | --- | --- | --- | --- | --- | --- | --- | --- | --- | --- | --- | --- | --- | --- | --- | --- | --- |
| CCN(CC)CCNC(=O)c1c(C)[nH]c(/C=C2\C(=O)Nc3ccc(F)cc32)c1C | 121 | 28.7 | 99 | 54.5 | 25.1 | 88.6 | 103 | 7.13 | 26.3 | 74.2 | 111 | 104 | 83.6 | 84 | 53.6 | 50.5 | 58.7 | 2.71 | 80.7 | 25.4 | residual activity [2]: 59.7%; residual activity [22]: 4.06%; residual activity [23]: 96.7%; residual activity [24]: 30.4%; residual activity [25]: 88.8%; residual activity [26]: 39.8%; residual activity [27]: 105%; residual activity [28]: 9.78%; residual activity [29]: 98.1%; residual activity [30]: 99.2%; residual activity [31]: 95.1%; residual activity [32]: 83.8%; residual activity [33]: 96.1%; residual activity [34]: 72.1%; residual activity [35]: 31.8%; residual activity [36]: 94.8%; residual activity [37]: 16.3%; residual activity [38]: 40.3% |
| O=C(Nc1cccc(Nc2nccc(Nc3cccc(C(F)(F)F)c3)n2)c1)C1CC1 | 111 | 99.8 | 83.6 | 89.3 | 108 | 97.9 | 89.3 | 107 | 84.3 | 94.3 | 93.8 | 107 | 87.3 | 105 | 85.6 | 103 | 97 | 73.1 | 109 | 89.2 | residual activity [39]: 120%; residual activity [40]: 104%; residual activity [22]: 94.9%; residual activity [23]: 98.7%; residual activity [24]: 102%; residual activity [25]: 101%; residual activity [26]: 90.1%; residual activity [27]: 101%; residual activity [28]: 71.6%; residual activity [29]: 105%; residual activity [41]: 98.9%; residual activity [30]: 99.5%; residual activity [31]: 87.9%; residual activity [32]: 90.9%; residual activity [33]: 96.2%; residual activity [34]: 105%; residual activity [35]: 81.5%; residual activity [36]: 158%; residual activity [37]: 105%; residual activity [38]: 107% |
